Test results as given in PMC13233288, “Spider venom peptides Ht1a and Gg1a are toxic to honeybee parasite Varroa destructor by topical application” (npj Drug Discovery, 2026).

Experiments:
[1] = test system: V. destructor mites; experiment: Topical application of synthetic peptides and oxalic acid to V. destructor mites; assay type: in vivo, Varroa destructor; conditions: 3% oxalic acid, positive control
Description: An outline of the project discovery pipeline is presented in Supplementary Fig. 1. To identify varroacidal venom peptides, we screened venoms for activity against V. destructor by topical application. Topical tests were performed in several stages. First, whole venom was tested to determine mortality for V. destructor. Hit venoms were then subjected to several fractionation steps to isolate the active compounds. For the initial venom screen, a panel of 50 arthropod venoms (Table 1) were topically applied to V. destructor mites. Venoms were dissolved in 90% acetonitrile (v/v), and a 10 μg venom aliquot was applied per mite (n = 5 mites per venom). The dorsal plate of V. destructor mites (average mass 0.38 mg) was fixed to adhesive tape (ScotchTM 666 3 M; 19 × 32.9 mm, double sided) on microscope slides (ground edges 90° frosted end, 76 × 26 mm). A Nanoject II (Automatic Injector with Glass Capillaries, Drummond Cat.No. 3-000-205 A) was used for topical application of venom and control (90% acetonitrile) solutions. To accelerate solvent evaporation, the total volume of 483 nL was applied in seven aliquots of 69 nL each to the ventral plate of the mites between the posterior pair of legs. Each drop was allowed to dry before applying the next one, with the entire application procedure taking up to 1 h. Mite mortality was determined at various time intervals up to 48 h after the treatment using an Olympus stereomicroscope (SZX10/SZX2 Series). Initially, each mite was examined for movements of the legs, and immobile mites were stimulated with the tip of a wooden toothpick. Detection of static electricity by the mites, a few millimetres before the actual contact with the toothpick, was usually sufficient to trigger movement in mites that were still alive. […] At the later stage of the project, the slides with mites were placed into a self-constructed automated video monitoring system (using a USB camera) that employs an algorithm in OpenCV to subtract images from subsequent frames enabling the detection of changes in pixel intensity due to movements, for example of the extremities. Leg movements were stimulated with an air current applied over the mites at the time of image acquisition to determine mite mortality. The percentage of mite mortality for each venom was calculated at 2, 6 and 24 h, and adjusted by correcting for the mortality of the corresponding control group receiving only 90% acetonitrile.
The same procedure initially used for identifying varroacidal venoms was used for testing the topical activity of sHt1a and sGg1a. The peptides were dissolved in 0.5% Silwet L-77 (v/v), a silicone-based surfactant that is commonly used as a spreading agent for foliar sprays. 0.48 μg of peptide was topically applied to each mite, with n = 5 mites per treatment group. The activity of the sHt1a was confirmed using three cohorts of n = 5 mites, whereas the activity of sGg1a was confirmed using four cohorts of n = 5 mites. As a negative control, an equal volume of 0.5% Silwet (v/v) was topically applied (four cohorts of n = 5 mites), and 3% oxalic acid, a known varroacide used in commercial products[10] was used as positive control (eight cohorts of n = 5 mites). Mite mortality was recorded at 2-hourly intervals between 0 and 48 h after the treatment. For statistical analysis, mite survival data were plotted in Prism 10.0 (GraphPad Software, CA, USA), then a two-way ANOVA followed by Dunnett’s multiple comparisons test was performed, comparing the peptide and oxalic acid treatment against the respective 0.5% Silwet (v/v) control group data.

[2] = test system: honeybees; conditions: cited from earlier work
Description: (§1) A possible alternative solution for control of V. destructor is venom-derived acaricidal peptides. Venomous arachnids such as spiders and scorpions prey on arthropods, including other arachnids[17]–[19]. It is therefore unsurprising that the wide-spectrum insecticidal spider-venom peptide ω-hexatoxin-Hv1a (hereafter Hv1a) is also acaricidal. […] It therefore seems plausible that within the venoms of >53,000 extant spider[23] and >2,800 extant scorpion species, each comprising hundreds to thousands of p ...

[3] = cited from earlier work
Description: as §1

[4] = test system: mammals; conditions: cited from earlier work
Description: as §1

Molecule	time to significant mortality ([1]; eight cohorts of n = 5 mites) [h]	survival of V. destructor ([1]; vs 0.5% Silwet group, two-way ANOVA, Dunnett)	activity against honeybees [2]	acaricidal activity [3]	activity against mammals [4]
O=C(O)C(=O)O [oxalic acid, reference compound]	2	significantly reduced V. destructor survival	–	–	–
ω-hexatoxin-Hv1a	–	–	inactive	acaricidal	inactive
